{"source": "patent US11613517B2", "about": "“Amide prodrugs of small molecule nuclear receptor modulators” (OREGON HEALTH & SCIENCE UNIVERSITY, priority 2018, dated 2023)", "target": "T1, FAAH (Mus musculus, UniProt O08914)", "T1 construct": "from tissue; host or cells: live wild type male C57Bl/6 mice (in vivo; brain and serum analysed)", "T1 sequence (O08914 1-579)": "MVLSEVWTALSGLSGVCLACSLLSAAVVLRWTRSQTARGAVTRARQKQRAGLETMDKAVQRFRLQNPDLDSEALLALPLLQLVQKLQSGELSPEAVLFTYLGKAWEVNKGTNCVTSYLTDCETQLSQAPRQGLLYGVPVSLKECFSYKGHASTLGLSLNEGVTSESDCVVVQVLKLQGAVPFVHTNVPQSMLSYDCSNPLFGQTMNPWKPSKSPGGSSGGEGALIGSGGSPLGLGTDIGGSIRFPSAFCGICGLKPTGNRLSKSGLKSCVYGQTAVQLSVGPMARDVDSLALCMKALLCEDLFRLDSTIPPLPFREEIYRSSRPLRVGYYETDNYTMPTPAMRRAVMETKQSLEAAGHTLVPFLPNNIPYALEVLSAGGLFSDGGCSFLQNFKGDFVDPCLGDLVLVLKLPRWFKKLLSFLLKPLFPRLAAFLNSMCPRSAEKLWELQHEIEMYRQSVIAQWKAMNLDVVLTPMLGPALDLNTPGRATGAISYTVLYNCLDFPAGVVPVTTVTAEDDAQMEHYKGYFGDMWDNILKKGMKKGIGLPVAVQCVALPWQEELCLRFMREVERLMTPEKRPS", "test": "FAAH Inhibition Study: prodrug alone or after FAAH inhibitor PF-3845 in mice", "details": "FIG. 12, in vivo", "method": "Two cohorts of three mice were injected once intraperitoneally (i.p.) with prodrug at 9.14 μmol/kg. One cohort was injected 1 h prior to prodrug administration with a 1 mg/kg dose of FAAH inhibitor PF-3845. Euthanasia was performed on each cohort 1 h after injection with the prodrug and the tissues and blood were harvested. Tissues were immediately frozen and blood was kept on ice for a minimum of 30 min and then spun down at 7500×g for 15 min. Serum ([…]) was collected and was stored with tissues at −80° C. until samples were processed. Samples were processed as described above.\nAll parent drugs and d6-sobetirome internal standard were analyzed using a QTRAP 4000 hybrid/triple quadrupole linear ion trap mass spectrometer (Applied biosystems) with electrospray ionization (ESI) in negative mode. The mass spectrometer was interfaced to a Shimadzu (Columbia, Md.) SIL-20AC XR auto-sampler followed by 2 LC-20AD XR LC pumps and analysis on an Applied Biosystems/SCIEX QTRAP 4000 instrument (Foster City, Calif.). […] Data were acquired using SCIEX Analyst 1.6.2 software (Framingham, Mass., USA) and analyzed using Multiquant 3.0.2\nStatistical analyses were performed using the two-tailed Student t test comparing individual groups with the appropriate vehicle group or as noted. […] AUC values were calculated and data was plotted and analyzed using GraphPad Prism 7. […]"}
{"smiles": "CNC(=O)COc1cc(C)c(Cc2cc(C#Cc3ccc([N+](=O)[O-])cc3)c(O)c(C(C)C)c2)c(C)c1", "note": "[NRMA-2, 2-(4-(4-hydroxy-3-isopropyl-5-((4-nitrophenyl)ethynyl)benzyl)-3,5-dimethylphenoxy)-N-methylacetamide]", "values": [{"measurement": "In vivo validation as substrate for the FAAH enzyme", "result": "substrate for the FAAH enzyme"}]}
